The text below walks through data of US20010056104A1, “Treatment of ocular hypertension and glaucoma” (priority 2000, published 2001).

pEC50: −log10 of the molar value.

Data set [1] relates to prostaglandin receptor sites in bovine corpus luteal membranes. In words: Ligand binding assay in bovine corpus luteal membranes. The following applies: for displacement of bound 3H-unoprostone isopropyl by unlabeled competing ligand: competition studies. The method, then:
(§1) In ligand binding studies, the specificity of labeled unoprostone isopropyl and the metabolite binding to prostaglandin receptor sites in bovine corpus luteal membranes was determined. This tissue expresses most of the PG receptors including an abundance of FP receptors. In signal transduction studies, the mobilization of intracellular calcium using Fluorescence Imaging technique in the primary culture of human ciliary muscle cells and cyclic AMP generation in rabbit iris-ciliary body was measured.
This method is well described in the literature. […] Free unbound ligands were separated by rapid filtration using a millipore filtration assembly. Membrane bound radioactivity retained by the filter was counted. It is important to define the following terms for appreciation of the binding data:
Total binding is defined as the amount bound in the absence of unlabeled ligand.
Specific binding is defined as the binding displaced by unlabeled ligand.
Non-specific binding is the binding not displaced by unlabeled ligand.

In another data set the target is FP-receptor (Felis catus, UniProt A0ABI7XJ69). The data set can be described thus: Functional FP-receptor study, cat iris sphincter muscle contraction. It counts as cell-based. The following applies: for pEC50: text restating Table I, read-out: concentration needed to stimulate the FP-receptor at 50% efficacy. The method, then: Functional FP-receptor studies were performed using iris sphincter muscles from cat eyes. The eyes were either used directly after enucleation or stored in ice cold saline overnight. The iris sphincter muscles were prepared, cut in halfs, and mounted in thermostated (37° C.) tissue baths with oxygenated modified Kreb's solution containing indomethacin (2.8×10^−6 M), atropine (10^−7 M) and propranolol (10^−7 M). A resting tension of 150 mg was applied, and the contractile force was measured isometrically after cumulative dosing of test compounds. A manual or automated tissue bath system (Buxco, STC 400) was used for the experiments. For each tissue sample the maximal response was normalized to 100%. The mean response of two to four different preparations was calculated.
(§2) Concentration-effect curves were fitted to the data using the logistic sigmoid function.

In a further data set the target is EP2-receptors (Cavia porcellus, UniProt A0A286XDB1). In words: EP2-receptor activity, guinea-pig ileum twitch inhibition. It counts as cell-based. The settings on record: for pEC50: smooth muscle bath, guinea-pig ileum. An excerpt: Segments of guinea-pig ileum were used to study the effect on EP2-receptors. Male guinea pigs were killed with a blow to the head and bled from the carotid arteries. Circular rings (2-3 mm wide) were taken from the ileum about 10 cm from the caecum, A resting tension of 1 g was applied and the preparation was stimulated by using a Gras S88 stimulator delivering trains of square pulses (frequency 7.5 Hz, pulse duration 0.1 msec, train duration 4 sec) to two parallel platinum electrodes in the bath. The voltage over the electrodes was approximately 20V, and the interval between trains was 100 seconds. The peak contractile force at each stimulation train was measured. Test compounds were added cumulatively, and the inhibitory effect on the muscle twitch was evaluated. […] Concentration-effect curves were fitted to the data using the logistic sigmoid function.

The target of a further data set is T1, EP3-receptors (Cavia porcellus, UniProt A0A286XLZ9).
T1 sequence (A0A286XLZ9 with tags, fused parts or gaps): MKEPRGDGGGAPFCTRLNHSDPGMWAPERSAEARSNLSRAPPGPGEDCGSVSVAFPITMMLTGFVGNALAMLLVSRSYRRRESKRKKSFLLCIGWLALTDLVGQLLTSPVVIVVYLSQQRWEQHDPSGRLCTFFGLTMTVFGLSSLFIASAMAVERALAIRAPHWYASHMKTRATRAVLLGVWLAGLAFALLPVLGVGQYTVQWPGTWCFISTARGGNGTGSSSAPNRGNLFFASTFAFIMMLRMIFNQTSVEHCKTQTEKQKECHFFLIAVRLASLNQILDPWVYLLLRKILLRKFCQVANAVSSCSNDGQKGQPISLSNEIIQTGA
In words: EP3-receptor activity, guinea-pig vas deferens. It is filed as cell-based. The following applies: for pEC50: smooth muscle bath, guinea-pig vas deferens. The method, then: Guinea-pig vas deferens was used to assess the effect on EP3-receptors. Tissue segments of about 10 mm were mounted in tissue baths and the experiments were performed essentially in the same way as described for the guinea-pig circular ileum. Concentration-effect curves were fitted to the data using the logistic sigmoid function.

For data set [2] the following is noted: cynomolgus monkeys; cited from earlier work.
For data set [3] the following is noted: treated for about three or more months; cited from earlier work.
The target of another data set is FP receptor (Homo sapiens, UniProt P43088). The settings on record: background statement; cited from earlier work.
The subject of data set [4] is human ciliary muscle cells. In words: Intracellular calcium mobilization (Fura 2-AM) in human ciliary muscle cells. It is filed as cell-based. The following applies: FP receptor agonist control, concentration not given. The method, then:
as §1
Human ciliary muscle cells at confluency were loaded with Fura 2-AM. Cells in a petri dish were put in a jacketed chamber mounted on the microscope platform. The chamber was maintained at 37° C. by thermostatically controlled water circulating through the chamber jacket. The cells were then exposed to the excitation wavelengths of 334 and 380 nm with an emission wavelength of 510 nm. Cells were perfused with HEPES buffer with or without test compounds. The intracellular calcium was visualized and photographed using Attofluor RatioVision software program and Zeiss fluorescence microscope.

In another data set the target is T2, EP1-receptor (Bos taurus, UniProt F1MUY4).
T2 sequence (F1MUY4 1-407): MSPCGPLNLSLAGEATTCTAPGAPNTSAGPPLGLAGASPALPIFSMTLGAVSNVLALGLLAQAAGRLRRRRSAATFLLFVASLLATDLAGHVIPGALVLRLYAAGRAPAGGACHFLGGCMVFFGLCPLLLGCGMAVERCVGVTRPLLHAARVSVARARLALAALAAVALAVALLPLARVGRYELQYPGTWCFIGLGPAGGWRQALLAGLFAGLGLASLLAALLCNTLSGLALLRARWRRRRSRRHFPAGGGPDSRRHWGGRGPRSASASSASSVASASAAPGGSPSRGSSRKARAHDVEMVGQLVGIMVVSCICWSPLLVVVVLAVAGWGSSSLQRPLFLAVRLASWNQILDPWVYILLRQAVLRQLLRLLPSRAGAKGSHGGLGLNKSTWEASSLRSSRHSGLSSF
The data set can be described thus: EP1-receptor activity, bovine iris sphincter muscle. It counts as cell-based.
Excerpt: Iris sphincter muscles from bovine eyes were used for studies of EP1-receptor responses. Freshly enucleated bovine eyes were transported on ice from a slaughterhouse.
as §2

The mark [5] stands for this setting: competing ligand PGF2α 0.062 μM.
[6] abbreviates: radioligand conc. 8.0 nM (3H-PGF2α).

Sequence of EP2-receptors (A0A286XDB1 1-359): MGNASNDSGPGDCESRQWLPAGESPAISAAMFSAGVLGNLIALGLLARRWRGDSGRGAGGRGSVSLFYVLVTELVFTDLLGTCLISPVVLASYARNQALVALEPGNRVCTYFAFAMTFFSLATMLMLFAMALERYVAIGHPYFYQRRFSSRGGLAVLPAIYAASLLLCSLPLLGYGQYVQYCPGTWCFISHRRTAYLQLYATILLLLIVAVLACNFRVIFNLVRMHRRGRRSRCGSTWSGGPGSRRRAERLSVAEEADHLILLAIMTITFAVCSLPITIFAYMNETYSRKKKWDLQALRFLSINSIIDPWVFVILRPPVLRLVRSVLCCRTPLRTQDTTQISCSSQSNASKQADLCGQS
Sequence of FP-receptor (A0ABI7XJ69 entry or part of it): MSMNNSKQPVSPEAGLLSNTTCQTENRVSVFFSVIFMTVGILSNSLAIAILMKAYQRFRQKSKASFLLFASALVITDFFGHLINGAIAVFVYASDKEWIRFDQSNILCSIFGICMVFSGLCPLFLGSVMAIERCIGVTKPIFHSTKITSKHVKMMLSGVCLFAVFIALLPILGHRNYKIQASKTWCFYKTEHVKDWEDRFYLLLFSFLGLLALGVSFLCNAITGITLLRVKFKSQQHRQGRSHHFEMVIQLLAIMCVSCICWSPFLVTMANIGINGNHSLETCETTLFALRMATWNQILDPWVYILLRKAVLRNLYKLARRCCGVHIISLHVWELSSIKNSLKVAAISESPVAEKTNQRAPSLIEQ
Sequence of FP receptor (P43088 whole entry): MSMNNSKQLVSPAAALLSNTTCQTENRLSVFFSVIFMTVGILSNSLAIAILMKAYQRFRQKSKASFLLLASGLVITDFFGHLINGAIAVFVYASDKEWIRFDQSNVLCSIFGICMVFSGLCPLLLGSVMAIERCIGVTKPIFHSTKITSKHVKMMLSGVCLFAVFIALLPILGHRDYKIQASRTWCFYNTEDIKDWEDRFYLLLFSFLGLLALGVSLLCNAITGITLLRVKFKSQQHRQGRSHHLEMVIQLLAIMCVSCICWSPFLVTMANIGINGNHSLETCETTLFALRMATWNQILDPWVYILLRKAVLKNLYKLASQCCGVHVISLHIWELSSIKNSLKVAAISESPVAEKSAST

Regarding `CCCCC[C@H](O)/C=C/[C@@H]1[C@@H](C/C=C\CCCC(=O)O)[C@H]2CO[C@@H]1C2` [U46619], the “displacement of bound 3H-unoprostone isopropyl by unlabeled competing ligand” value in data set [1] is given as “did not displace”.
Take `CCCCC[C@H](O)/C=C/[C@@H]1[C@@H](C/C=C\CCCC(=O)O)[C@@H](O)C[C@H]1O` [PGF2α]: the “specific binding to bovine corpus luteal membranes (in words)” value in [1] is on record as “bound specifically”. In addition, the “Specific Binding (3H-PGF2α)” value in data set [1] (setting [5]) was determined as 0.07 fmoles/mg Protein; in data set [1] (competing ligand PGF2α 0.25 μM), 0.15 fmoles/mg Protein; in data set [1] (competing ligand PGF2α 0.5 μM), 0.25 fmoles/mg Protein; in [1] (competing ligand PGF2α 8.0 μM), 0.42 fmoles/mg Protein. Besides, the Total 3H-PGF2α binding in data set [1] (setting [5]), in data set [1] (competing ligand PGF2α 0.25 μM), in data set [1] (competing ligand PGF2α 0.5 μM) and in data set [1] (competing ligand PGF2α 8.0 μM) was 0.56 fmol/mg protein throughout. In [1], the “displacement of bound 3H-unoprostone isopropyl by unlabeled competing ligand” value is “did not displace”. In addition, the “Specific Binding” value is given as 120.0 ± 15.0 fmoles/mg protein in data set [1] (radioligand conc. 2.0 nM) and 423.0 ± 40.0 fmoles/mg protein in data set [1] (setting [6]). Besides, the “Total Binding” value in data set [1] (radioligand conc. 2.0 nM) was found to be 150.0 ± 16.0 fmoles/mg protein; in [1] (radioligand conc. 4.0 nM), 325.0 ± 25.0 fmoles/mg protein; in data set [1] (setting [6]), 505.0 ± 75.0 fmoles/mg protein.
For the compound 17-Phenyl trinor PGE1, in data set [1], the “displacement of bound 3H-unoprostone isopropyl by unlabeled competing ligand” value was “did not displace”.
`O=C(O)CCC/C=C\C[C@@H]1[C@@H](CC[C@@H](O)CCc2ccccc2)[C@H](O)C[C@@H]1O` [Latanoprost Acid]: the pEC50 at FP-receptor was 8.00; at EP2-receptors, 3.28; at EP3-receptors, 4.55.
Turning to `CCCCCC(O)C=CC1C(O)CC(=O)C1CC=CCCCC(=O)OC(C)C` (centres unmarked) [PGE2-IE], the iridial pigmentation entry in [2] is listed as “induced increased iridial pigmentation”.
Turning to `CCCCC[C@H](O)/C=C/[C@@H]1[C@@H](C/C=C\CCCC(=O)OC(C)C)[C@@H](O)C[C@H]1O` [PGF2α-IE], the iridial pigmentation result in data set [2] is “induced increased iridial pigmentation”.
On to `CC(C)OC(=O)CCC/C=C\C[C@@H]1[C@@H](CC[C@@H](O)CCc2ccccc2)[C@H](O)C[C@@H]1O` [Latanoprost, 13,14-dihydro-17-phenyl-18,19,20-trinor PGF2α isopropyl ester], for which the “receptor selectivity (FP vs other prostaglandin receptors)” value at FP-receptor (from Table I) is “selective agonist for the FP receptor”. Moreover, the “human patients with brown pigmentation of the iris” value in [3] was at least 10%. For the same compound, the iridial pigmentation entry in data set [2] is given as “induced increased iridial pigmentation”. At FP receptor, the “specific binding affinity for the FP receptor” value is given as “substantial specific binding affinity”.
As for `CCCC1([C@H](O)C/C=C/[C@H]2[C@H](O)CC(=O)[C@@H]2CCCCCCC(=O)OC)CCC1` [Butaprost], the “displacement of bound 3H-unoprostone isopropyl by unlabeled competing ligand” value in data set [1] is given as “did not displace”.
For the compound `O=C(O)CCCCCCC1C(=O)NC(=O)N1CCC(O)C1CCCCC1` (centres unmarked) [BW245C], the “displacement of bound 3H-unoprostone isopropyl by unlabeled competing ligand” value in [1] is listed as “did not displace”.
Turning to `O=C(O)CCC/C=C\C[C@@H]1[C@@H](/C=C/[C@@H](O)COc2cccc(C(F)(F)F)c2)[C@H](O)C[C@@H]1O` (racemic) [Fluprostenol], the “mobilization of intracellular calcium” value in data set [4] is reported as “mobilized calcium”.
As to `CC#CCC(C)[C@H](O)/C=C/[C@@H]1[C@H]2C/C(=C/CCCC(=O)O)C[C@H]2C[C@H]1O` (some centres unmarked) [iloprost], in data set [1], the “displacement of bound 3H-unoprostone isopropyl by unlabeled competing ligand” value is “did not displace”.
`O=C(O)CCCC=CCC1C(O)CC(O)C1CCC(=O)CCc1ccccc1` (centres unmarked) [15-keto Latanoprost Acid]: the “potency on the FP receptor relative to latanoprost acid” value at FP-receptor (from Table I EC50 values) was “at least ten times less potent”. Further, the pEC50 on FP-receptor was 6.59; at EP1-receptor (read-out: EC50 EP1, smooth muscle bath, bovine iris sphincter), 4.55; at EP2-receptors it was below 4.00; on EP3-receptors, below 4.00. Moreover, the “activity on EP1 receptor” value on EP1-receptor (in words) is “virtually no activity”. Also, at EP2-receptors (in words), the “activity on EP2 receptor” value is reported as “virtually no activity”. Also, at EP3-receptors (in words), the “activity on EP3 receptor” value is recorded as “virtually no activity”.
